The values that follow come from patent publication US20230406853A1, “COVALENT CDK2-BINDING COMPOUNDS FOR THERAPEUTIC PURPOSES” (Umbra Therapeutics, Inc., priority 2021, published 2023).

This assay has as its target CycE1-CDK2 (Homo sapiens, UniProt P24941). Description: Cdk2 Enzymatic TR-FRET Assay. It counts as biochemical. To be noted: CDK2/CycE 5 nM, ATP 100 μM, 60 minutes pre-incubation with compound; read-out: CDK2 Kinase. An excerpt: A TR-FRET system was used to detect CycE1-CDK2 kinase activity. The assay used a Europium-labeled anti-phospho-Ser/Thr antibody and ULight™-labeled peptide substrate (eIF4E-binding protein 1). When CycE1-CDK2 phosphorylates the peptide the phosphorylated Thr is recognized by the Europium-labeled anti-phospho-Ser/Thr antibody. Upon excitation of the Europium donor fluorophore at 337 nm, energy is transferred to the ULight™ acceptor dye on the substrate, resulting in the emission of light at 665 nm. The fluorescent signal is proportional to the level of ULight™ peptide phosphorylation and to the kinase activity.
The stock solution was prepared as follows: • 1× Reaction buffer: 50 mM HEPES pH 7.5, 10 mM MgCl2, 0.5 mM TCEP, 0.01% Tween®20, 1 mM EGTA, 0.001% fatty acid free (faf)-BSA; • 1× Detection buffer: equilibrate the Detection buffer at RT for at least 20 minutes then dilute 10-fold the stock in water; • 4×ENZYME mix: CDK2/CycE enzyme (5 nM final concentration in kinase reaction) in 1× Reaction buffer; • 4×SUBSTRATE mix: 4E-BP substrate (50 nM final concentration in kinase reaction)+ATP (100 μM final concentration in kinase reaction) in 1× Reaction buffer • 2×STOP/DETECTION mix: EDTA (10 mM final concentration in assay)+Anti-Phosphate antibody (0.5 nM final concentration in assay) in 1× Detection buffer • Neutral Control: Assay with no inhibition (MAX activity) • Inhibitor Control: Assay with IC100 (1 mM) reference inhibitor JNJ7706621 (MIN activity)
The assay was assembled directly in a white, small volume, Proxiplate (PerkinElmer) as follows: • Step 1: Charge compounds=5 μL/well • Step 2: Charge kinase=2.5 μL/well→total volume 7.5 μL/well • The plate is sealed and incubated at room temperature for 60 minutes • Step 3: Substrate mix (substrate/ATP)=2.5 μL/well→total enzymatic reaction volume 10 μL/well • The plate is sealed and incubated at room temperature for 60 minutes • Step 4: Stop/Detection mix (EDTA/antibody)=10 μL/well→total volume 20 μL/well • The plate is sealed and incubated at room temperature for at least 2 hours and fluorescence signal is measured at PHERAstar FSX The reading conditions are the followings for PHERAstar FSX:
A 384-microtiter plate (MTP), containing 20 test compounds in eight-points dose response, is prepared. Test compounds dose response curves are prepared in automation in 100% DMSO in a CyBio Felix, starting from a DMSO stock solution of 10 mM. To obtain the eight-points dose-response curve, a serial dilution protocol in 100% DMSO is performed for each compound by using a 96 MTP as a support. 20 μL of the 10 mM stock solutions are transferred in row A of a 96 MTP U-bottom from column 2 to 11 for a total of 10 compounds/plate. Starting from the 10 mM stock, serial dilutions across rows, from A to B and proceeding up to H, are performed for each compound by transferring 6.3 μL of the more concentrated fluid in 13.7 μL of 100% DMSO.
In order to generate duplicate data points each well of the 96 MTP is then replicated into two wells of a 384 MTP plate for each compound and for each concentration to be tested. The 384 MTP compound plate is used as source plate in a “mother to child” process with a CyBi®-Well dispenser in which 1 μL of compound is moved into a destination plate pre-filled with 24 μL of reaction buffer, obtaining 2× concentrated compound solution.
Genedata Screener® 17.0 was used for data analysis. In the implemented workflow, the following calculations were conducted: • Calculate the Response Value (KRV) from the respective original data as follow:
HTRF Assay: Ratio=665 nm_FRET/620 nm_Ab*10000 • Calculate the % Inhibition of the compound (Inhibitory effect). KRV was normalized versus Neutral Controls and Inhibitor Controls (JNJ7706621) to obtain Activity % according to the following formula:
Activity %=−100*(x−<Neutral Control>)/(<Inhibitor Control>−<Neutral Control>) […]
On the technique in general: TR-FRET usually uses a lanthanide donor and a delayed reading to cut background.
Turning to `CCOCc1cc2cnc(NC3CCN(S(C)(=O)=O)CC3)nc2n(CCCS(=O)(=O)n2cncn2)c1=O` [Compound 265], the IC50 lay within 10 to 100 µM.
The result for `O=C(Cn1c(=O)ccc2cnc(NCC3CCCCC3)nc21)Nc1ccc(S(=O)(=O)n2cnc(C3CC3)n2)cc1` [Compound 282] reads greater than 200 µM; that for `Cc1cc(S(=O)(=O)n2cnc(-c3ccccc3)n2)ccc1NC(=O)Cn1c(=O)ccc2cnc(NC3CCN(S(C)(=O)=O)CC3)nc21` [Compound 252], less than 10 µM.
Consider `O=C(Cn1c(=O)ccc2cnc(NC3CC(F)(F)C3)nc21)Nc1ccc(S(=O)(=O)n2cnc(C3CC3)n2)cc1` [Compound 281], for which the IC50 was less than 10 µM.
The result for `CC(C)N1CCC(Nc2ncc3ccc(=O)n(CCCS(=O)(=O)n4cnc(C5CC5)n4)c3n2)CC1` [Compound 277] reads greater than 200 µM.
As for `O=c1ccc2cnc(NCC3CCCCC3)nc2n1CCCS(=O)(=O)n1cnc(C2CC2)n1` [Compound 268], the IC50 was greater than 200 µM.
The result for `CS(=O)(=O)N1CCC(Nc2ncc3ccc(=O)n(Cc4ccc(S(=O)(=O)n5cnc(C6CC6)n5)cc4)c3n2)CC1` [Compound 243] reads less than 10 µM; that for `CS(=O)(=O)N1CCC(Nc2ncc3ccc(=O)n(CCCS(=O)(=O)n4cnc(-c5ccccc5)n4)c3n2)CC1` [Compound 246], less than 10 µM.
For the molecule `CS(=O)(=O)N1CCC(Nc2ncc3ccc(=O)n(CCOCCCS(=O)(=O)n4cnc(-c5ccccc5)n4)c3n2)CC1` [Compound 230], the IC50 was in the range of 10 to 100 µM.
In the case of `CS(=O)(=O)N1CCC(Nc2ncc3ccc(=O)n(CC(=O)Nc4ccc(S(=O)(=O)n5cnc(C6CC6)n5)cc4)c3n2)CC1` [Compound 232], the IC50 was less than 10 µM.
Consider `O=c1ccc2cnc(NCC3CC3)nc2n1CCCS(=O)(=O)n1cnc(C2CC2)n1` [Compound 266], for which the IC50 lay in the range of 10 to 100 µM.
The result for `CS(=O)(=O)N1CCC(Nc2ncc3ccc(=O)n(CCOCCCS(=O)(=O)n4cnc(C5CC5)n4)c3n2)CC1` [Compound 233] reads less than 10 µM.
As to `CC(C)(C)c1ncn(S(=O)(=O)c2ccc(NC(=O)Cn3c(=O)ccc4cnc(NC5CCN(S(C)(=O)=O)CC5)nc43)cc2)n1` [Compound 262], the IC50 was greater than 200 µM.
In the case of `CCOCc1cc2cnc(NC3CCN(S(C)(=O)=O)CC3)nc2n(CCCS(=O)(=O)n2cnc(-c3ccccc3)n2)c1=O` [Compound 256] it was greater than 200 µM; in that of `CS(=O)(=O)N1CCC(Nc2ncc3ccc(=O)n(CC(=O)Nc4ccc(S(=O)(=O)n5cnc(-c6ccccc6)n5)cc4)c3n2)CC1` [Compound 229], less than 10 µM; in that of `CNc1ncc2ccc(=O)n(CC(=O)Nc3ccc(S(=O)(=O)n4cnc(C5CC5)n4)cc3)c2n1` [Compound 248], less than 10 µM.
The result for `CS(=O)(=O)N1CCC(Nc2ncc3ccc(=O)n(CCS(=O)(=O)n4cncn4)c3n2)CC1` [Compound 291] reads less than 10 µM; that for `Cc1cc(S(=O)(=O)n2cnc(C3CC3)n2)ccc1NC(=O)Cn1c(=O)ccc2cnc(NC3CCN(S(C)(=O)=O)CC3)nc21` [Compound 251], less than 10 µM.
The result for `Cc1ncn(S(=O)(=O)c2ccc(NC(=O)Cn3c(=O)ccc4cnc(NC5CCN(S(C)(=O)=O)CC5)nc43)cc2)n1` [Compound 253] reads less than 10 µM; that for `CS(=O)(=O)N1CCC(Nc2ncc3ccc(=O)n(CCCS(=O)(=O)n4cnc(C5CC5)n4)c3n2)CC1` [Compound 245], less than 10 µM; that for `CS(=O)(=O)N1CCC(Nc2ncc3ccc(=O)n(CC(=O)Nc4ccc(S(=O)(=O)n5cnc(C6CCCC6)n5)cc4)c3n2)CC1` [Compound 273], greater than 200 µM.
As for `O=C(Cn1c(=O)ccc2cnc(NCC3CC3)nc21)Nc1ccc(S(=O)(=O)n2cnc(C3CC3)n2)cc1` [Compound 278], the IC50 is greater than 200 µM.
For the molecule `CCOC(=O)Cc1ncn(S(=O)(=O)c2ccc(NC(=O)Cn3c(=O)ccc4cnc(NC5CCN(S(C)(=O)=O)CC5)nc43)cc2)n1` [Compound 260], the IC50 is less than 10 µM.
The result for `CS(=O)(=O)N1CCC(Nc2ncc3ccc(=O)n(CC(=O)NCc4ccc(S(=O)(=O)n5cncn5)cc4)c3n2)CC1` [Compound 236] reads less than 10 µM; that for `CNc1ncc2ccc(=O)n(CC(=O)Nc3ccc(S(=O)(=O)n4cnc(-c5ccccc5)n4)cc3)c2n1` [Compound 249], greater than 200 µM.
`CS(=O)(=O)N1CCC(Nc2ncc3ccc(=O)n(CC(=O)NCc4ccc(S(=O)(=O)n5cnc(C6CC6)n5)cc4)c3n2)CC1` [Compound 235]: the IC50 is less than 10 µM.
For `CC(C)CNc1ncc2ccc(=O)n(CCCS(=O)(=O)n3cnc(C4CC4)n3)c2n1` [Compound 269], the IC50 was less than 10 µM.
Take `CS(=O)(=O)N1CCC(Nc2ncc3cc(CCO)c(=O)n(CCCS(=O)(=O)n4cnc(C5CC5)n4)c3n2)CC1` [Compound 276]: the IC50 is less than 10 µM.
In the case of `CS(=O)(=O)N1CCC(Nc2ncc3ccc(=O)n(CC(=O)NCc4ccc(S(=O)(=O)n5cnc(-c6ccccc6)n5)cc4)c3n2)CC1` [Compound 240] it was less than 10 µM.
The result for `O=C(Cn1c(=O)ccc2cnc(NC3CC3)nc21)Nc1ccc(S(=O)(=O)n2cnc(C3CC3)n2)cc1` [Compound 283] reads less than 10 µM.
The result for `CC(C(=O)Nc1ccc(S(=O)(=O)n2cnc(-c3ccccc3)n2)cc1)n1c(=O)ccc2cnc(NC3CCN(S(C)(=O)=O)CC3)nc21` (stereo not shown) [Compound 293] reads less than 10 µM.
